Laboratory results: US6528464B1, “Composition and method for inhibiting uptake of biguanide antimicrobials by hydrogels” (Bausch & Lomb Incorporated, priority 2001, dated 2003)

Experiment: Uptake (sorption) of Alexidine by SureVue hydrogel contact lenses after overnight soak
Type: physicochemical
Text: The following examples evaluate whether the addition of cyclodextrin reduced the sorption of the biguanide Alexidine on SureVue® brand hydrogel contact lenses (commercially available from Johnson & Johnson Vision Care Incorporated of Jacksonville, Fla.).
5. 3-mL of each test solution, as well as the control solution, were placed into the lens cases for a total of 5 samples per solution.
6. SureVue® lenses were placed into each lens well aseptically.
7. Each lens was “dipped” into double-distilled water for approximately 2 seconds prior to installation into the lens cases.
8. Lenses were allowed to soak for approximately 18 hours (overnight).
9. 1-mL of solution from each of the lens wells was removed, analyzed and returned to the lens cases.

Uptake of Alexidine by SureVue ® Lenses (0.1% Beta-Cyclodextrin) (0.1% Beta-Cyclodextrin, soak approximately 18 hours) [ppm]	Uptake of Alexidine by SureVue ® Lenses (0.3% Beta-Cyclodextrin) (0.3% Beta-Cyclodextrin, soak approximately 18 hours) [ppm]	Uptake of Alexidine By SureVue ® Lenses (no Beta-Cyclodextrin (control solution), soak approximately 18 hours) [ppm]	SMILES	Inhibition of uptake of Alexidine by SureVue ® Lenses (0.1% Beta-Cyclodextrin) [% Inhibition]	Inhibition of uptake of Alexidine by SureVue ® Lenses (0.3% Beta-Cyclodextrin) [% Inbibition]
62.10	31.04	75.26	CCCCC(CC)CNC(=N)NC(=N)NCCCCCCNC(=N)NC(=N)NCC(CC)CCCC (centres unmarked) [Alexidine]		
			OC[C@H]1O[C@@H]2O[C@H]3[C@H](O)[C@@H](O)[C@@H](O[C@H]4[C@H](O)[C@@H](O)[C@@H](O[C@H]5[C@H](O)[C@@H](O)[C@@H](O[C@H]6[C@H](O)[C@@H](O)[C@@H](O[C@H]7[C@H](O)[C@@H](O)[C@@H](O[C@H]8[C@H](O)[C@@H](O)[C@@H](O[C@H]1[C@H](O)[C@H]2O)O[C@@H]8CO)O[C@@H]7CO)O[C@@H]6CO)O[C@@H]5CO)O[C@@H]4CO)O[C@@H]3CO [Beta-Cyclodextrin]	17.50	58.75
